For the assay, the system named is β-catenin-TCF-mediated reporter transcription activity in Colo 205 cells. Briefly: Colo 205 reporter assay (TCF/LEF luciferase). In kind it is cell-based. The settings on record: Homo sapiens, COLO 205, 5 h, Colo 205 TCF/LEF luciferase reporter, five hours after addition of compound; read-out: TCF reporter Colo205 IC50. An outline of the steps: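 Luciferase signal from a TCF/LEF-driven reporter, stably integrated in Colo 205 colon cancer cells, was measured 5 h after compound addition.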
For orientation: Reporter assays use an easily measured gene product as a stand-in for the process of interest.

Here are results for 30 compounds from patent US20230312587A1, “PTERIDINONE COMPOUNDS AND USES THEREOF” (Vertex Pharmaceutical Incorporated, priority 2018, published 2023).

For the compound `Cc1nc(NCc2cnn(Cc3cncc(F)c3)c2)nc2c1NC(=O)[C@H](C)N2C` [Compound 208, (7S)-2-(((1-((5-fluoropyridin-3-yl)methyl)-1H-pyrazol-4-yl)methyl)amino)-4,7,8-trimethyl-7,8-dihydropteridin-6(5H)-one], the half-maximal inhibitory concentration (IC50) was less than 300 nM.

Consider `Cc1nc(NCc2cnn(Cc3cnc(C(F)(F)F)c(F)c3)c2)nc2c1NC(=O)[C@H](C)N2C` [Compound 209, (7S)-2-(((1-((5-fluoro-6-(trifluoromethyl)pyridin-3-yl)methyl)-1H-pyrazol-4-yl)methyl)amino)-4,7,8-trimethyl-7,8-dihydropteridin-6(5H)-one], for which the IC50 was less than 300 nM.

Turning to `COc1cc(C(F)(F)F)ncc1Cn1cc(CNc2nc(C)c3c(n2)N(C)[C@@H](C)C(=O)N3)cn1` [Compound 210, (7S)-2-(((1-((4-methoxy-6-(trifluoromethyl)pyridin-3-yl)methyl)-1H-pyrazol-4-yl)methyl)amino)-4,7,8-trimethyl-7,8-dihydropteridin-6(5H)-one], the IC50 was less than 300 nM.

For the compound `Cc1nc(NCc2cnn(Cc3ccc(C(C)(C)C)nc3)c2)nc2c1NC(=O)[C@H](C)N2C` [Compound 211, (7S)-2-(((1-((6-(tert-butyl)pyridin-3-yl)methyl)-1H-pyrazol-4-yl)methyl)amino)-4,7,8-trimethyl-7,8-dihydropteridin-6(5H)-one], the 50% inhibitory concentration (IC50) was 300 to 1000 nM.

Regarding `Cc1nn(Cc2ccc(C(F)(F)F)nc2)c(C)c1CNc1nc(C)c2c(n1)N(C)[C@@H](C)C(=O)N2` [Compound 212, (7S)-2-(((3,5-Dimethyl-1-((6-(trifluoromethyl)pyridin-3-yl)methyl)-1H-pyrazol-4-yl)methyl)amino)-4,7,8-trimethyl-7,8-dihydropteridin-6(5H)-one], the half-maximal inhibitory concentration (IC50) is no less than 5000 nM.

Regarding `COc1cc(Cn2cc(CNc3nc(C)c4c(n3)N(C)[C@@H](C)C(=O)N4)cn2)cnc1C(F)(F)F` [Compound 213, (7S)-2-(((1-((5-methoxy-6-(trifluoromethyl)pyridin-3-yl)methyl)-1H-pyrazol-4-yl)methyl)amino)-4,7,8-trimethyl-7,8-dihydropteridin-6(5H)-one], the IC50 is less than 300 nM.

With `COc1ncc(Cn2cc(CNc3nc(C)c4c(n3)N(C)[C@@H](C)C(=O)N4)cn2)cc1C(F)(F)F` [Compound 215, (7S)-2-(((1-((6-methoxy-5-(trifluoromethyl)pyridin-3-yl)methyl)-1H-pyrazol-4-yl)methyl)amino)-4,7,8-trimethyl-7,8-dihydropteridin-6(5H)-one], the 50% inhibitory concentration (IC50) is less than 300 nM.

On to `Cc1nc(N[C@H](C)c2cnn(Cc3ccc(C(F)(F)F)nc3)c2)nc2c1NC(=O)[C@H](C)N2C` [Compound 217, (7S)-4,7,8-Trimethyl-2-(((R)-1-(1-((6-(trifluoromethyl)pyridin-3-yl)methyl)-1H-pyrazol-4-yl)ethyl)amino)-7,8-dihydropteridin-6(5H)-one], for which the IC50 is no less than 5000 nM.

For `COc1nc(C(F)(F)F)ccc1Cn1cc(CNc2nc(C)c3c(n2)N(C)[C@@H](C)C(=O)N3)cn1` [Compound 218, (7S)-2-(((1-((2-methoxy-6-(trifluoromethyl)pyridin-3-yl)methyl)-1H-pyrazol-4-yl)methyl)amino)-4,7,8-trimethyl-7,8-dihydropteridin-6(5H)-one], the half-maximal inhibitory concentration (IC50) was less than 300 nM.

For the compound `Cc1nc(NCc2cnn(C[C@@H]3CCCN3c3cc(F)cc(F)c3)c2)nc2c1NC(=O)[C@H](C)N2C` [Compound 219, (7S)-2-(((1-(((S)-1-(3,5-difluorophenyl)pyrrolidin-2-yl)methyl)-1H-pyrazol-4-yl)methyl)amino)-4,7,8-trimethyl-7,8-dihydropteridin-6(5H)-one], the half-maximal inhibitory concentration (IC50) was less than 300 nM.

As to `CCC[C@H]1C(=O)Nc2c(C)nc(NCc3cnn(Cc4ccc(C(F)(F)F)nc4)c3)nc2N1C` [Compound 220, (7S)-4,8-dimethyl-7-propyl-2-(((1-((6-(trifluoromethyl)pyridin-3-yl)methyl)-1H-pyrazol-4-yl)methyl)amino)-7,8-dihydropteridin-6(5H)-one], the IC50 was less than 300 nM.

Regarding `CN1C(=O)C(C)(C)Nc2nc(NCc3cnn(Cc4ccc(F)cc4)c3)ncc21` [Compound 225, 2-(((1-(4-Fluorobenzyl)-1H-pyrazol-4-yl)methyl)amino)-5,7,7-trimethyl-7,8-dihydropteridin-6(5H)-one], the IC50 was no less than 5000 nM.

Regarding `CN1C(=O)C2(CC2)N(C)c2nc(NCc3cnn(Cc4ccc(F)cc4)c3)ncc21` [Compound 227, 2′-(((1-(4-fluorobenzyl)-1H-pyrazol-4-yl)methyl)amino)-5′,8′-dimethyl-5′,8′-dihydro-6′H-spiro[cyclopropane-1,7′-pteridin]-6′-one], the IC50 was in the range of 300 to 1000 nM.

For `CN1C(=O)C2(COC2)N(C)c2nc(NCc3cnn(Cc4ccc(F)cc4)c3)ncc21` [Compound 228, 2′-(((1-(4-fluorobenzyl)-1H-pyrazol-4-yl)methyl)amino)-5′,8′-dimethyl-5′,8′-dihydro-6′H-spiro[oxetane-3,7′-pteridin]-6′-one], the IC50 is 1000 to 5000 nM.

On to `CCN1C(=O)C(C)(C)N(CC)c2nc(NCc3cnn(Cc4ccc(F)cc4)c3)ncc21` [Compound 230, 5,8-diethyl-2-(((1-(4-fluorobenzyl)-1H-pyrazol-4-yl)methyl)amino)-7,7-dimethyl-7,8-dihydropteridin-6(5H)-one], for which the half-inhibitory concentration (IC50) fell in the range of 300 to 1000 nM.

On to `CCN1C(=O)C(C)(C)N(CC)c2nc(NCc3cnn(Cc4cc(F)c(F)c(F)c4)c3)ncc21` [Compound 231, 5,8-diethyl-7,7-dimethyl-2-(((1-(3,4,5-trifluorobenzyl)-1H-pyrazol-4-yl)methyl)amino)-7,8-dihydropteridin-6(5H)-one], for which the 50% inhibitory concentration (IC50) was less than 300 nM.

In the case of `CCN1C(=O)C2(CC2)N(CC)c2nc(NCc3cnn(Cc4ccc(F)cc4)c3)ncc21` [Compound 232, 5′,8′-diethyl-2′-(((1-(4-fluorobenzyl)-1H-pyrazol-4-yl)methyl)amino)-5′,8′-dihydro-6′H-spiro[cyclopropane-1,7′-pteridin]-6′-one], the IC50 is less than 300 nM.

Consider `CCN1C(=O)C2(CC2)N(CC)c2nc(NCc3cnn(Cc4cc(F)c(F)c(F)c4)c3)ncc21` [Compound 233, 5′,8′-diethyl-2′-(((1-(3,4,5-trifluorobenzyl)-1H-pyrazol-4-yl)methyl)amino)-5′,8′-dihydro-6′H-spiro[cyclopropane-1,7′-pteridin]-6′-one], for which the IC50 was less than 300 nM.

Take `CN1C(=O)C(C)(C)N(C)c2nc(NCc3cnn(Cc4cnccc4C(F)(F)F)c3)ncc21` [Compound 236, 5,7,7,8-Tetramethyl-2-(((1-((4-(trifluoromethyl)pyridin-3-yl)methyl)-1H-pyrazol-4-yl)methyl)amino)-7,8-dihydropteridin-6(5H)-one]: the 50% inhibitory concentration (IC50) was less than 300 nM.

For the compound `Cc1nc(NCc2cnn(Cc3ccc(C(F)(F)F)nc3)c2)nc2c1NC(=O)C(C)(C)N2C` [Compound 238, 4,7,7,8-Tetramethyl-2-(((1-((6-(trifluoromethyl)pyridin-3-yl)methyl)-1H-pyrazol-4-yl)methyl)amino)-7,8-dihydropteridin-6(5H)-one], the half-maximal inhibitory concentration (IC50) was less than 300 nM.

On to `Cc1nc(NCc2cnn(Cc3ccc(C(F)(F)F)nc3)c2)nc2c1NC(=O)C1(CC1)N2C` [Compound 239, 4′,8′-dimethyl-2′-(((1-((6-(trifluoromethyl)pyridin-3-yl)methyl)-1H-pyrazol-4-yl)methyl)amino)-5′,8′-dihydro-6′H-spiro[cyclopropane-1,7′-pteridin]-6′-one], for which the IC50 was less than 300 nM.

Turning to `C[C@H]1C(=O)Nc2cnc(N[C@H]3C[C@H](Oc4ccc(F)cc4)C3)nc2N1C` [Compound 240, (7S)-2-((trans-3-(4-fluorophenoxy)cyclobutyl)amino)-7,8-dimethyl-7,8-dihydropteridin-6(5H)-one], the half-maximal inhibitory concentration (IC50) lay within 1000 to 5000 nM.

Turning to `C[C@H]1C(=O)Nc2cnc(N[C@H]3C[C@@H](Oc4ccc(F)cc4)C3)nc2N1C` [Compound 241, (7S)-2-((cis-3-(4-fluorophenoxy)cyclobutyl)amino)-7,8-dimethyl-7,8-dihydropteridin-6(5H)-one], the half-maximal inhibitory concentration (IC50) was no less than 5000 nM.

For the compound `Cc1nc(N[C@H]2C[C@H](Oc3ccc(F)cc3)C2)nc2c1NC(=O)[C@H](C)N2C` [Compound 242, (7S)-2-((trans 3-(4-fluorophenoxy)cyclobutyl)amino)-4,7,8-trimethyl-7,8-dihydropteridin-6(5H)-one], the half-inhibitory concentration (IC50) is less than 300 nM.

As for `Cc1nc(N[C@H]2C[C@@H](Oc3ccc(F)cc3)C2)nc2c1NC(=O)[C@H](C)N2C` [Compound 243, (7S)-2-((cis-3-(4-fluorophenoxy)cyclobutyl)amino)-4,7,8-trimethyl-7,8-dihydropteridin-6(5H)-one], the half-maximal inhibitory concentration (IC50) lay in the range of 1000 to 5000 nM.

For `Cc1nc(NC2CN(Cc3ccccc3)C2)nc2c1NC(=O)[C@H](C)N2C` [Compound 244, (7S)-2-((1-benzylazetidin-3-yl)amino)-4,7,8-trimethyl-7,8-dihydropteridin-6(5H)-one], the IC50 was no less than 5000 nM.

In the case of `C[C@H]1C(=O)Nc2cnc(NC3CN(Cc4ccccc4)C3)nc2N1C` [Compound 245, (7S)-2-((1-benzylazetidin-3-yl)amino)-7,8-dimethyl-7,8-dihydropteridin-6(5H)-one], the 50% inhibitory concentration (IC50) is no less than 5000 nM.

For the compound `Cc1nc(N[C@H]2C[C@H](Oc3ccc(F)c(F)c3)C2)nc2c1NC(=O)[C@H](C)N2C` [Compound 248, (7S)-2-((trans 3-(3,4-difluorophenoxy)cyclobutyl)amino)-4,7,8-trimethyl-7,8-dihydropteridin-6(5H)-one], the IC50 is less than 300 nM.

`C[C@H]1C(=O)Nc2cnc(N[C@H]3C[C@H](Oc4cc(F)c(F)c(F)c4)C3)nc2N1C` [Compound 249, (7S)-7,8-dimethyl-2-((trans-3-(3,4,5-trifluorophenoxy)cyclobutyl)amino)-7,8-dihydropteridin-6(5H)-one]: the half-inhibitory concentration (IC50) is less than 300 nM.

For `Cc1nc(N[C@H]2C[C@H](Oc3ccc(F)c(F)c3)C2)nc2c1N(C)C(=O)[C@H](C)N2C` [Compound 252, (7S)-2-((trans-3-(3,4-difluorophenoxy)cyclobutyl)amino)-4,5,7,8-tetramethyl-7,8-dihydropteridin-6(5H)-one], the IC50 is less than 300 nM.

As a reminder, the IC50 is the concentration needed to halve the response being measured.
